Measured values reported in patent publication US12653796B2, “Compounds for use (in particular RIPA-56) in the prevention and/or treatment of non-alcoholic fatty liver disease” (SORBONNE UNIVERSITE, priority 2019, dated 2026).

What was measured:
RIPK1 = assay: ELISA of RIPK1 released in supernatant of L929 cells exposed to TNFα; format: cell-based, murine; settings: 20 μM, 2 h, then TNFα (25 ng/mL) 6 h
Experimental: FIG. 12. […] Results are shown as mean±SEM of six replicates.
L929 cells (LGC Standards, Molsheim, France), were cultured in Dulbecco's modified Eagle's medium (DMEM) (ThermoFisher, Massachusetts, USA) supplemented with 10% fetal bovine serum (Eurobio, Courtaboeuf, France), penicillin (100 IU/ml), streptomycin (0.1 mg/ml), and L-glutamine (0.03%) (ThermoFisher). […] AML-12 (alpha mouse liver-12) hepatocytes (LGC Standards) were cultured in DMEM/F12 Medium (ThermoFisher) supplemented with 10% fetal bovine serum (Eurobio), 10 μg/ml insulin, 5.5 μg/ml transferrin, 5 ng/ml selenium and 40 ng/ml dexamethasone (Sigma, Missouri, USA). AML-12 hepatocytes were stimulated with insulin (#I0516, 10 nM; Sigma) for 15 minutes.
Protein concentrations of human RIPK1 (SEE640Hu; Could-Clone Corp., Texas, USA), human MLKL (SER645Hu; Could-Clone Corp.) and murine RIPK1 (CSB-EL019735MO; Cusabio, Texas, USA) were determined by an ELISA kit according to the manufacturer's instructions.

[1] = tested on: primary human steatotic hepatocytes; assay: Fat depletion in primary human hepatocytes isolated from steatotic livers of patients with NAFLD; format: cell-based; settings: 20 μM, 24 h
Experimental: FIG. 7. RIPA-56 treatment induces fat depletion in primary human hepatocytes. Primary human hepatocytes were isolated from steatotic human livers of patients with NAFLD (n=5) (A-C) or from non-steatotic human livers and incubated with free fatty acids to induce steatosis or without (W/O) (n=5) (D-G), and treated with RIPA-56 (20 μM) or DMSO (vehicle) for 24 h. (A, D) Representative Oil Red-O and DAPI images; (B, E) Quantification of Oil Red-O staining normalized for the number of DAPI-stained nuclei; (C, F) Quantification of intracellular triglycerides normalized to protein content; (G) mRNA levels of CPT1A, MTTP and APOB100 were assessed by RT-qPCR, and shown relative to DMSO-treated hepatocytes. Results are shown as mean±SEM; n.s., not significant; *p<0.05; **p<0.01; scale bars, 100 μm. […]
The liver fragment was initially perfused with a prewarmed (37° C.) calcium-free buffer supplemented with 5 mmol/L ethylene glycol tetra-acetic acid (Sigma) followed by perfusion with a prewarmed (37° C.) buffer containing 6 mmol/L calcium (CaCl2) and collagenase 0.05% ([…]) (Sigma). […] The count of viable cells was determined using trypan blue exclusion. […]
Intracellular lipids were stained by means of Oil Red-O (Sigma). […] Fluorescence images were viewed with IX83 Olympus microscope, acquired with Cell-Sens V1.6 and analyzed with FIJI software. […]

## CCC(C)(C)C(=O)N(O)Cc1ccccc1 [RIPA-56, N-Benzyl-N-hydroxy-2,2-dimethylbutanamide]
RIPK1
  RIPK1 in the supernatant: undetectable
[1]
  intracellular lipid droplets (Oil Red-O): marked decrease
  intracellular triglyceride content: marked decrease
